Earlier results on 1 molecule are cited in patent publication US20030082215A1 (priority 1999, published 2003).

Broadly, the bioavailability is the share of a dose that reaches the circulation, judged against a reference dose that is usually intravenous.

Like-named read-outs stand apart in the source and are kept apart here.

Consider `CC(C)OC(=O)C(C)(C)Oc1ccc(C(=O)c2ccc(Cl)cc2)cc1` [fenofibrate], for which the bioavailability runs as follows: (conventional gelatin capsule form, after meals) 89%; (conventional gelatin capsule form, on an empty stomach) 26%; (gelatin capsule containing a 300 mg dose, healthy volunteers) around 30%.
